Test results taken from US20240033211A1, “EXTRACT OF AT LEAST ONE PLANT OF THE CROCUS SATIVUS SPECIES COMPRISING A HIGH CONTENT OF CROCINS AND A LOW CONTENT OF SAFRANAL, AND COSMETIC USE THEREOF AS ANTIOXIDANT” (L'OREAL, priority 2020, published 2024).

Assay: Study of squalene peroxidation (UVA, hematoporphyrin photosensitizer, singlet oxygen)
Type: biochemical
Text: Protocol: The principle of the test is to determine, via the assaying of squalene (Sq) and its photo-oxidation product, the efficacy of an active agent against this form of photo-peroxidation.
The test makes use of squalene in the presence of a photosensitizer, hematoporphyrin. Under the action of UVA rays, singlet oxygen (^1O2) is generated. This highly reactive form of oxygen degrades the squalene by oxidation of the double bonds to form squalene hydroperoxides (Sq-OOH).
In the context of the test, the exposure of squalene combined with hematoporphyrin is carried out in the presence of various concentrations of extract obtained according to Example 2 (according to the invention) and according to Example 3 (outside the invention). The reaction medium is ethanol.
Equipment and Reagents: • Squalene [Sigma S-3626] • Hematoporphyrine Free Base (approx. 70%) [Sigma—ref H-7253] • HPLC or UPLC system in reverse phase mode, detection in UV mode (205 nm)
Procedure: • ethanol solution containing 500 μg/ml of Sq and 2 μg/ml hematoporphyrin+extract to be tested • expose to UVA rays for the dose of 5 J/cm^2 • measure the amount of Sq and SqOOH before and after exposure • plot % inhibition as a function of the amount of extract tested.
*IC25: concentration of raw material needed to inhibit squalene peroxidation by 25%. […]

Substance: vitamin E
- IC50 (squalene peroxidation) (comparison value for vitamin E, printed as % (=250 ppm)): ~0.025%
- IC50 (concentration of raw material needed to inhibit squalene peroxidation by 50%) (solution in ethanol, UVA 5 J/cm^2): ~250 ppm
